From the supplement of paper PMC10307832

Columns and labels:
Assay in all cases: relative viability (nuclei count vs DMSO), 5 days (fraction); higher = more cells survive
[1] = compound: C1CNCCC1C2=CC(=NN2)C3=CC=NC=C3 + Cc1cc(Nc2cc(N3CCN(C)CC3)nc(Sc3ccc(NC(=O)C4CC4)cc3)n2)n[nH]1 [Tozasertib] (partner 0.1 µM)
How it was run: (§1)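 Lung cancer cell lines were seeded in 1536-well plates and dosed by pin tool the next day, with either a single drug or a fixed anchor-drug dose combined with five library-drug doses (not always all listed) spaced in √10 steps. Five days later, one step fixed the cells and stained their nuclei (final 0.05% Triton X-100, 1% formaldehyde, 1 ug/ml Hoechst), and nuclei were counted on 4× images. Relative viability is the nuclei count in treated wells divided by the count in vehicle wells, and each value is the median of duplicate plates.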

[2] = compound: C[C@@H](N)c1ccc(C(=O)Nc2ccnc3[nH]ccc23)cc1 + COc1cccc2cc(-c3nc([C@H]4CC[C@H](C(=O)O)CC4)n4ncnc(N)c34)[nH]c12 [OSI-027] (partner 0.5 µM)
How it was run: as §1

[3] = compound: O[C@H]1CC[C@H](Nc2ncc3nc(Nc4c(F)cc(F)cc4F)n([C@H]4CCOC4)c3n2)CC1 [Tanzisertib] + C[C@]1(O)C[C@@H](c2nc(-c3ccc4ccc(-c5ccccc5)nc4c3)c3c(N)nccn32)C1 [Linsitinib] (partner 1 µM)
How it was run: as §1

[4] = compound: O[C@H]1CC[C@H](Nc2ncc3nc(Nc4c(F)cc(F)cc4F)n([C@H]4CCOC4)c3n2)CC1 [Tanzisertib] + Nc1ncn([C@H]2C[C@H](O)[C@@H](CO)O2)c(=O)n1 [Decitabine] (partner 2 µM)
How it was run: as §1

Cell Line	relative viability ([1]; first compound 0.08 µM)	relative viability ([1]; first compound 0.8 µM)	relative viability ([1]; first compound 2.53 µM)	relative viability ([1]; first compound 8 µM)	relative viability ([2]; first compound 0.04 µM)	relative viability ([2]; first compound 0.1265 µM)	relative viability ([2]; first compound 0.4 µM)	relative viability ([2]; first compound 4 µM)	relative viability ([3]; first compound 0.08 µM)	relative viability ([3]; first compound 0.253 µM)	relative viability ([3]; first compound 0.8 µM)	relative viability ([3]; first compound 2.53 µM)	relative viability ([3]; first compound 8 µM)	relative viability ([4]; first compound 0.08 µM)	relative viability ([4]; first compound 0.253 µM)	relative viability ([4]; first compound 0.8 µM)	relative viability ([4]; first compound 2.53 µM)	relative viability ([4]; first compound 8 µM)	relative viability ([2]; first compound 1.265 µM)
NCI-H23	0.35	0.422	0.411	0.36	0.603	0.577	0.592	0.674	0.614	0.497	0.535	0.627	0.638	0.3	0.301	0.32	0.282	0.374	–
NCI-H1651	0.598	0.685	0.767	0.735	0.901	0.817	0.888	0.802	0.956	0.837	1.05	1.05	0.854	0.615	0.66	0.474	0.591	0.537	1.05
NCI-H1975	0.885	0.759	0.725	0.724	0.799	0.876	0.666	0.533	1.1	0.979	0.993	1.07	0.873	0.406	0.41	0.295	0.373	0.39	0.673
COR-L23	0.222	0.201	0.229	0.172	0.775	0.838	0.755	0.669	1.09	0.874	0.896	1.02	0.934	0.454	0.502	0.411	0.511	0.467	0.748
HCC-44	0.873	1.32	1.1	0.897	0.37	0.433	0.644	0.482	0.683	0.74	0.673	0.602	0.724	0.94	0.978	0.998	0.975	0.955	0.19
LOU-NH91	0.673	0.648	0.696	0.58	0.626	0.667	0.688	0.591	0.996	0.906	0.996	0.842	0.627	0.869	0.82	0.837	0.805	0.635	0.601
NCI-H441	0.532	0.613	0.727	0.73	0.631	0.807	0.62	0.701	0.626	0.607	0.634	0.553	0.454	0.237	0.239	0.261	0.238	0.257	–
NCI-H647	0.263	0.413	0.297	0.263	0.597	0.611	0.586	0.501	1.17	1.29	1.12	1.24	1.3	0.437	0.329	0.334	0.457	0.578	0.574
NCI-H1915	0.475	0.435	0.451	0.438	0.562	0.64	0.63	0.489	1.07	1.14	1.08	1.01	1.11	0.288	0.275	0.264	0.257	0.279	–
NCI-H1734	0.27	0.279	0.269	0.271	0.627	0.611	0.549	0.563	1.09	0.902	0.861	0.871	0.87	0.492	0.492	0.399	0.52	0.441	0.315
NCI-H1993	0.586	0.618	0.564	0.653	0.529	0.556	0.574	0.603	0.759	0.681	0.754	0.768	0.677	0.723	0.732	0.589	0.438	0.539	0.577
LK-2	0.157	0.208	0.182	0.184	0.295	0.176	0.212	0.249	0.522	0.519	0.724	0.624	0.637	0.325	0.379	0.217	0.381	0.221	–
HCC-78	0.439	0.325	0.459	0.392	0.54	0.389	0.476	0.544	0.478	0.524	0.528	0.367	0.529	0.683	0.675	0.666	0.704	0.622	0.388
NCI-H2405	0.749	0.751	0.692	0.525	0.594	0.742	0.695	0.36	0.954	0.881	0.968	0.904	0.702	0.784	0.783	0.76	0.914	0.629	0.542
HOP-62	0.416	0.407	0.386	0.383	0.819	0.76	0.852	0.821	0.924	1.14	1.13	1.04	0.918	0.212	0.236	0.217	0.248	0.215	0.745
NCI-H650	0.738	0.729	0.799	0.793	–	0.508	0.503	0.421	0.949	0.918	0.92	1.2	0.366	0.33	0.321	0.305	0.337	0.284	0.488
NCI-H358	0.106	0.101	0.106	0.0938	0.816	1.07	0.855	0.701	0.771	0.662	0.76	0.782	0.566	0.232	0.221	0.189	0.248	0.181	0.794

Cell Line	relative viability ([1]; first compound 0.08 µM)	relative viability ([1]; first compound 0.8 µM)	relative viability ([1]; first compound 2.53 µM)	relative viability ([1]; first compound 8 µM)	relative viability ([2]; first compound 0.04 µM)	relative viability ([2]; first compound 0.1265 µM)	relative viability ([2]; first compound 0.4 µM)	relative viability ([2]; first compound 4 µM)	relative viability ([3]; first compound 0.08 µM)	relative viability ([3]; first compound 0.253 µM)	relative viability ([3]; first compound 0.8 µM)	relative viability ([3]; first compound 2.53 µM)	relative viability ([3]; first compound 8 µM)	relative viability ([4]; first compound 0.08 µM)	relative viability ([4]; first compound 0.253 µM)	relative viability ([4]; first compound 0.8 µM)	relative viability ([4]; first compound 2.53 µM)	relative viability ([4]; first compound 8 µM)	relative viability ([2]; first compound 1.265 µM)
BEN	0.575	0.514	0.45	0.513	0.293	0.307	0.3	0.284	0.875	0.916	1.11	0.984	0.904	0.707	0.766	0.782	0.702	0.57	0.314
SW 1573	–	0.202	0.174	0.148	0.694	0.604	0.69	0.485	0.968	0.85	0.703	0.753	0.672	0.595	0.471	0.535	0.516	0.394	0.485
SK-MES-1	0.783	1	0.981	0.834	0.61	0.574	0.573	0.602	1.08	1.06	1.06	1.12	0.832	0.365	0.409	0.364	0.34	0.327	0.673
NCI-H1755	0.583	–	0.643	0.526	0.606	0.815	0.758	0.587	0.989	0.997	0.975	0.953	0.892	0.737	0.701	0.705	0.754	0.726	0.638
NCI-H2023	0.351	0.3	0.482	0.256	0.475	0.435	0.569	0.509	0.702	0.589	0.759	0.621	0.56	0.249	0.21	0.217	0.165	0.166	0.476
LC-2-ad	–	0.445	0.485	0.467	0.763	0.893	0.858	0.625	0.94	0.838	0.921	0.812	0.796	0.774	0.788	0.777	0.806	0.722	–
NCI-H1666	0.59	0.7	0.693	0.755	0.917	0.979	0.935	1.06	0.834	0.862	0.832	0.777	0.933	0.766	0.714	0.658	0.704	0.679	1.14
201T	0.944	0.944	0.893	0.951	0.844	0.835	0.961	0.856	1.02	1.01	0.969	1.01	0.956	0.862	0.902	0.853	0.857	0.85	1.01
NCI-H2009	0.713	0.74	0.689	0.696	0.675	0.77	0.655	0.624	1.22	1.17	1.17	1.26	1.21	0.366	0.437	0.387	0.355	0.377	0.714
NCI-H1395	0.731	0.643	0.813	0.766	0.637	0.739	0.685	0.588	1.32	0.956	1.08	1.04	1.05	0.798	0.726	0.747	0.737	0.72	0.389
LU99A	0.307	0.267	0.278	0.304	–	0.328	0.292	0.316	0.557	0.481	0.505	0.523	0.537	1.03	0.88	0.984	0.874	0.911	0.277
NCI-H1437	0.412	0.415	0.417	0.421	0.947	0.838	0.853	0.919	1.14	0.981	1.11	1.13	0.971	0.622	0.572	0.606	0.629	0.533	1
EKVX	0.396	0.303	0.491	0.401	0.609	0.798	0.832	0.727	0.953	1.02	1.04	1.02	0.822	0.371	0.356	0.41	0.323	0.324	0.761
ABC-1	0.145	0.17	0.201	0.176	0.502	0.603	0.559	0.511	0.728	0.65	1.07	0.977	0.736	1.03	0.958	0.976	1.18	0.836	–
NCI-H520	0.395	0.378	0.457	0.457	0.287	0.333	0.329	0.335	1.19	1.11	0.941	0.832	0.927	0.565	0.483	0.533	0.491	0.459	0.334
LCLC-97TM1	0.225	0.177	0.256	0.293	0.69	0.587	0.625	0.701	–	0.18	0.192	0.186	0.2	0.25	0.264	0.201	0.245	0.228	0.384
NCI-H1793	0.313	0.243	0.332	0.373	0.322	0.284	0.254	0.355	1.04	0.686	0.972	0.884	0.816	0.533	0.48	0.509	0.51	0.453	–
